Marks after values point to notes of the source that are not given here.
Columns and labels:
SK-hep1 liver tumors = experiment: Transplanted tumor in nude mice, intraperitoneal, SK-hep1; type: in vivo, BALB/c nude mice; conditions: 8 administrations; for Tumor inhibition rate / Tumor weight: SK-hep1, 5 mg/kg i.p. once every 3 days; for Body Weight After administration: SK-hep1 tumor-bearing BALB/c mice, 5 mg/kg i.p. once every 3 days
Experimental: (§1) BALB/c nude mice were used to inoculate Bel-7402, HepG-2 and SK-hep1 liver tumors according to the transplanted tumor research method under aseptic operation, and the cell density was not less than 5×10^6/ml, 0.2 ml was inoculated subcutaneously in the axilla of the right hind limb of each mouse. After the cells were inoculated, the cells were administered intraperitoneally (concentration: 5 mg/kg), once every 3 days, for a total of 8 administrations. After the 2nd day of drug withdrawal, all tumor-bearing mice were sacrificed, and their body weight, tumor weight and tumor inhibition were weighed.

Lung cancer A549 cells = experiment: In vitro antitumor activity test (MTT), A549; type: cell-based; conditions: Homo sapiens, 24 h
Experimental: (§2) 13 human tumor cell lines were selected and cultured in RPMI-1640 medium (Gibco company) containing 10% inactivated fetal bovine serum, 100 U/ml penicillin and 100 U/ml streptomycin, cultured at 37° C. in a 5% CO2 incubator, and passaged once every 2 days. Using the MTT method, cells in the logarithmic growth phase were digested with 0.25% trypsin, centrifuged at 1000 r/min for 5 min, 8×10^3 cells were added to each well, and seeded in a 96-well plate, and 180 μl of cell suspension was added to each well, and a blank was set at the same time. The 96-well plate inoculated with tumor cells was placed in a carbon dioxide incubator for 24 hours, and then 20 μl of the drug was added, and an equal volume of culture medium was added to the blank control well, and the drug was divided into 8 concentrations from 50 μg/L to 0.4 μg/L. Three duplicate wells were set for each drug concentration and placed in an incubator for 24 h. 10 μl of MTT solution (5 mg/ml) was added to each well, and the culture was continued for 4 h. The supernatant was aspirated and discarded, 100 μl of dimethyl sulfoxide (DMSO) solution was added to each well, placed on a micro shaker for 10 min, and the absorbance (A value) was measured at a wavelength of 492 nm in a microplate reader, and the inhibition rate of the drug on tumor cells was calculated according to the following formula.
(§3) In this test, the IC50 value of the compound on tumor cells was calculated by the Origin software according to the inhibition rate of the compound. AC-201 in the following table was the abbreviation of PL-AC-201, and so on.

[1] = system: Liver cancer Bel-7402 cells; experiment: In vitro antitumor activity test (MTT), Bel-7402; type: cell-based; conditions: Homo sapiens; Liver cancer Bel-7402, MTT, 24 h
Experimental: as §2, §3

[2] = system: Human osteosarcoma MG63 cells; experiment: In vitro antitumor activity test (MTT), MG63; type: cell-based; conditions: MG-63, 24 h
Experimental: as §2, §3

[3] = system: Cervical cancer Hela cells; experiment: In vitro antitumor activity test (MTT), Hela; type: cell-based; conditions: Homo sapiens, 24 h
Experimental: as §2, §3

human red blood cells = experiment: Detection of hemolytic activity; type: cell-based
Experimental: 2-3 ml of human blood was drawn using an anticoagulant tube, thoroughly mixed, and kept at 4° C. for later use. 2 ml of blood was aspirated and added with 2-3 ml of PBS, followed by gently pipetting and centrifugation for 5 min at 1000 rpm, which was repeated 3-4 times. After the last centrifugation, PBS was aspirated, PBS was added to 40 ml (20 times the volume), and the number of blood cells at this time was 2×10^8 cells/ml. The red blood cell suspension was added to the plate (U-shaped 96-well plate), and 70 μl/well was used as a negative well. Only PBS was added to blank wells, 140 μl/well. 2 ml of the red blood cell suspension was centrifuged, PBS was discarded, 2 ml of pure water was added, mixed well, and 140 μl/well was used as a positive well. The diluted polypeptide solutions of different concentrations were added to the plate, 70 μl/well. Incubated at 37° C., 87 rpm, shaken for 2h, centrifuged for 5 min at 3000 rpm. The OD value measured by microplate reader: After centrifugation, 90 μl of supernatant was drawn and transferred to a flat-bottom 96-well plate, and the OD value at 578 nm was measured by microplate reader. ODtest-OD negative >0.1 (the first concentration that met the conditions was MHC).

[4] = system: Pancreatic cancer Bxpc-3 cells; experiment: In vitro antitumor activity test (MTT), Bxpc-3; type: cell-based; conditions: Homo sapiens; Pancreatic cancer Bxpc-3, MTT, 24 h
Experimental: as §2, §3

Bel-7402 liver tumors = experiment: Transplanted tumor in nude mice, intraperitoneal, Bel-7402; type: in vivo, BALB/c nude mice; conditions: 8 administrations; for Tumor inhibition rate / Tumor weight: Bel-7402, 5 mg/kg i.p. once every 3 days; for Body Weight After administration: Bel-7402 tumor-bearing BALB/c mice, 5 mg/kg i.p. once every 3 days
Experimental: as §1

Lung cancer H460 cells = experiment: In vitro antitumor activity test (MTT), H460; type: cell-based; conditions: Homo sapiens, NCI-H460, 24 h
Experimental: as §2, §3

[5] = system: Liver cancer SK-hep1 cells; experiment: In vitro antitumor activity test (MTT), SK-hep1; type: cell-based; conditions: Homo sapiens, 24 h
Experimental: as §2, §3

Colon cancer HT29 cells = experiment: In vitro antitumor activity test (MTT), HT29; type: cell-based; conditions: Homo sapiens, HT-29, 24 h
Experimental: as §2, §3

Lung cancer H292 cells = experiment: In vitro antitumor activity test (MTT), H292; type: cell-based; conditions: Homo sapiens, NCI-H292, 24 h
Experimental: as §2, §3

[6] = Acute toxicity test of single administration to ICR mice; conditions: mouse, in vivo, intravenous, single tail vein injection, observed 7 days
Experimental: ICR mice, 18-22 g, were raised in a common-grade animal room, fed with common feed, and ingested freely. The group distance and dose were determined after exploring the Dm and Dn of the compounds of the examples. Five concentrations of the compounds of the examples were formulated at the desired dose. The corresponding doses of drugs were injected into the tail vein according to body weight, and the blank control group was injected with normal saline. Immediately after administration, the performance and death of each animal were observed and recorded, and the possible toxic reaction or death of animals within 7 days after a single administration was observed and recorded.

[7] = system: 13 human tumor cell lines; experiment: Average IC50 over the tumor cell lines (MTT); type: cell-based; conditions: mean IC50 for each tumor, read-out: AverageIC50
Experimental: as §2, §3
The ratio of the hemolytic concentration MHC of the compound to the mean IC50 for each tumor was referred to as the therapeutic index (TI). The safety of the compound was evaluated by the therapeutic index. The higher the therapeutic index, the greater the safety range of the compound.

HepG-2 liver tumors = experiment: Transplanted tumor in nude mice, intraperitoneal, HepG-2; type: in vivo, BALB/c nude mice; conditions: 8 administrations; for Tumor inhibition rate / Tumor weight: HepG-2, 5 mg/kg i.p. once every 3 days; for Body Weight After administration: HepG-2 tumor-bearing BALB/c mice, 5 mg/kg i.p. once every 3 days
Experimental: as §1

Melanoma B16 cells = experiment: In vitro antitumor activity test (MTT), B16; type: cell-based; conditions: 24 h
Experimental: as §2, §3

[8] = system: Breast cancer MCF-7 cells; experiment: In vitro antitumor activity test (MTT), MCF-7; type: cell-based; conditions: Homo sapiens, MCF7; Breast cancer MCF-7, MTT, 24 h
Experimental: as §2, §3

[9] = system: Liver cancer HepG-2 cells; experiment: In vitro antitumor activity test (MTT), HepG-2; type: cell-based; conditions: Homo sapiens, HepG2; Liver cancer HepG-2, MTT, 24 h
Experimental: as §2, §3

Lung cancer H1299 cells = experiment: In vitro antitumor activity test (MTT), H1299; type: cell-based; conditions: Homo sapiens, NCI-H1299, 24 h
Experimental: as §2, §3

[10] = human red blood cells, 37° C., 2h, first concentration with ODtest-OD negative >0.1

SMILES	IC50 (Lung cancer A549 cells) [µM]	IC50 [1] [µM]	IC50 [2] [µM]	IC50 [3] [µM]	MHC (human red blood cells; hemolytic concentration, in nM) [nM]	MHC (human red blood cells; [10]) [µg/mL]	IC50 [4] [µM]	IC50 (Lung cancer H460 cells) [µM]	IC50 [5] [µM]	IC50 (Colon cancer HT29 cells) [µM]	IC50 (Lung cancer H292 cells) [µM]	LD50 at 7 days [6] [mg/kg]	IC50 [7] [µM]	Tumor inhibition rate (HepG-2 liver tumors)	Tumor weight (HepG-2 liver tumors) [mg]	Body Weight After administration (HepG-2 liver tumors) [g]	IC50 (Melanoma B16 cells) [µM]	IC50 [8] [µM]	IC50 [9] [µM]	IC50 (Lung cancer H1299 cells) [µM]	also measured
CC1(C)CC(NC(=O)C(Cc2ccc(-c3ccccc3)cc2)NC(=O)c2cc3ccccc3n2Cc2ccccc2)CC(C)(C)N1 (centres unmarked) [PL-AC-15, reference compound]	0.0312	0.0817	0.0258	0.0197	1.6e+06	1000	0.0489	0.022	0.0264	0.0382	0.0283	23.6	0.032	66.7** %	549.9 ± 10.2	23.8 ± 1.0	0.0305	0.0232	0.0162	0.0244	Tumor inhibition rate (SK-hep1 liver tumors): 60.6** %; Tumor weight (SK-hep1 liver tumors): 441.5 ± 10.8 mg; Body Weight After administration (SK-hep1 liver tumors): 23.2 ± 0.3 g; Tumor inhibition rate (Bel-7402 liver tumors): 61.8** %; Tumor weight (Bel-7402 liver tumors): 302.9 ± 0.8 mg; Body Weight After administration (Bel-7402 liver tumors): 25.2 ± 1.1 g
CC(=O)Oc1ccccc1C(=O)NC(Cc1ccc(-c2ccccc2)cc1)C(=O)NC1CC(C)(C)NC(C)(C)C1 (centres unmarked) [PL-AC-201]	0.0299	0.0502	0.0248	0.0195	5.8e+06	3000	0.0521	0.0219	0.0162	0.0359	0.0223	27.2	0.0282	69.3** %	506.9 ± 9.4	22.9 ± 1.4	0.0298	0.0243	0.0161	0.0237	Tumor inhibition rate (SK-hep1 liver tumors): 61.2** %; Tumor weight (SK-hep1 liver tumors): 434.7 ± 9.4 mg; Body Weight After administration (SK-hep1 liver tumors): 23.7 ± 1 g; Tumor inhibition rate (Bel-7402 liver tumors): ^ΔΔ66.2** %; Tumor weight (Bel-7402 liver tumors): 268.1 ± 9.6 mg; Body Weight After administration (Bel-7402 liver tumors): 23.2 ± 1.0 g
COc1ccc2cc(C(C)C(=O)NC(Cc3ccc(-c4ccccc4)cc3)C(=O)NC3CC(C)(C)NC(C)(C)C3)ccc2c1 (centres unmarked) [PL-AC-202]	0.0232	0.0456	0.0241	0.0161	5.1e+06	3000	0.0351	0.0185	0.0115	0.0325	0.0201	34.8	0.024	^ΔΔ75.4** %	406.2 ± 5.9	22.8 ± 0.8	0.0284	0.0211	0.0158	0.0198	Tumor inhibition rate (SK-hep1 liver tumors): ^ΔΔ71.7** %; Tumor weight (SK-hep1 liver tumors): 317.1 ± 8.7 mg; Body Weight After administration (SK-hep1 liver tumors): 24.9 ± 1.0 g; Tumor inhibition rate (Bel-7402 liver tumors): ^ΔΔ73.1** %; Tumor weight (Bel-7402 liver tumors): 213.3 ± 9.3 mg; Body Weight After administration (Bel-7402 liver tumors): 22.9 ± 1.1 g
C/C(=C1/c2ccc(F)cc2C(CC(=O)NC(Cc2ccc(-c3ccccc3)cc2)C(=O)NC2CC(C)(C)NC(C)(C)C2)C1C)c1ccc([S+](C)[O-])cc1 (centres unmarked) [PL-AC-204]	0.0298	0.0407	0.0245	0.0192	4.1e+06	3000	0.0494	0.0216	0.0236	0.0374	0.0276	29.9	0.0281	65.1** %	576.3 ± 10.7	23.1 ± 1.0	0.0305	0.0231	0.0159	0.0216	

From patent publication US12552747B2, “Amino acid derivative containing non-steroidal anti-inflammatory drug structure and preparation method and application thereof” (priority 2020, dated 2026)
